According to patent US20230085307A1, “PYRIDAZINONE COMPOUND AND HERBICIDE” (NISSAN CHEMICAL CORPORATION, priority 2019, published 2023):

How the values were obtained:
late watergrass = assay: Test Example 1: herbicidal activity, application before weed generation under submerged conditions (Table 16, symbol A); assay type: in vivo, late watergrass (Echinochloa oryzicola)
In short: (§1)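 Alluvial soil was flooded to 4 cm depth, weed seeds were sown mixed and 2.5-leaf rice seedlings were transplanted. On sowing day, the compound's emulsion, diluted in water to a set dose, was applied to the water surface. Plants grew at 25–30 °C and were scored 0–5 after three weeks.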

Japanese bulrush = assay: Test Example 1: herbicidal activity, application before weed generation under submerged conditions (Table 16, symbol B); assay type: in vivo, Japanese bulrush (Schoenoplectus juncoides)
In short: as §1

barnyard grass [1] = assay: Test Example 3: herbicidal effect by foliage application, Wagner pot (Table 18, symbol H); assay type: in vivo, barnyard grass (Echinochloa crus-galli)
In short: (§2)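 Plants were sown in alluvial soil held under 0.1–0.5 cm standing water and grown 14 days in a greenhouse at 25–30 °C. An emulsifiable formulation, water-diluted to the set dose, was then sprayed onto the foliage, and effects were scored three weeks later using previously defined criteria.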

Chinese sprangletop = assay: Test Example 3: herbicidal effect by foliage application, Wagner pot (Table 18, symbol D); assay type: in vivo, chinese sprangletop (Leptochloa chinensis)
In short: as §2

rice flat sedge = assay: Test Example 3: herbicidal effect by foliage application, Wagner pot (Table 18, symbol E); assay type: in vivo, rice flat sedge (Cyperus iria)
In short: as §2

southern crabgrass = assay: Test Example 4: herbicidal effect by soil treatment (Table 19, symbol F); assay type: in vivo, southern crabgrass (Digitaria ciliaris)
In short: (§3)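 Pre-emergence style soil spray: seeds under ~1.5 cm sterilized diluvial soil received a uniform coat of emulsion diluted to the predetermined herbicide amount. Greenhouse 25–30° C; readout at week three on previously defined criteria.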

green foxtail [2] = assay: Test Example 4: herbicidal effect by soil treatment (Table 19, symbol G); assay type: in vivo, green foxtail (Setaria viridis)
In short: as §3

blackgrass [3] = assay: Test Example 4: herbicidal effect by soil treatment (Table 19, symbol J); assay type: in vivo, blackgrass (Alopecurus myosuroides)
In short: as §3

redroot pigweed [4] = assay: Test Example 4: herbicidal effect by soil treatment (Table 19, symbol N); assay type: in vivo, redroot pigweed (Amaranthus retroflexus)
In short: as §3

green foxtail [5] = assay: Test Example 5: herbicidal effect by foliage application, plastic box (Table 20, symbol G); assay type: in vivo, green foxtail (Setaria viridis); details: foliage application, three weeks after application
In short: (§4)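 Plants were sown into sterilized diluvial soil under about 1.5 cm cover and kept in a greenhouse at 25° C. to 30° C. Fourteen days on, foliage received an even spray of the diluted emulsion. Herbicidal or crop effect was judged three weeks afterwards.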

barnyard grass [6] = assay: Test Example 5: herbicidal effect by foliage application, plastic box (Table 20, symbol H); assay type: in vivo, barnyard grass (Echinochloa crus-galli); details: foliage application, three weeks after application
In short: as §4

blackgrass [7] = assay: Test Example 5: herbicidal effect by foliage application, plastic box (Table 20, symbol J); assay type: in vivo, blackgrass (Alopecurus myosuroides); details: foliage application, three weeks after application
In short: as §4

Italian ryegrass = assay: Test Example 5: herbicidal effect by foliage application, plastic box (Table 20, symbol K); assay type: in vivo, Italian ryegrass (Lolium multiflorum); details: foliage application, three weeks after application
In short: as §4

windgrass = assay: Test Example 5: herbicidal effect by foliage application, plastic box (Table 20, symbol L); assay type: in vivo, windgrass (Apera spica-venti); details: foliage application, three weeks after application
In short: as §4

velvetleaf = assay: Test Example 5: herbicidal effect by foliage application, plastic box (Table 20, symbol M); assay type: in vivo, velvetleaf (Abutilon theophrasti); details: foliage application, three weeks after application
In short: as §4

redroot pigweed [8] = assay: Test Example 5: herbicidal effect by foliage application, plastic box (Table 20, symbol N); assay type: in vivo, redroot pigweed (Amaranthus retroflexus); details: foliage application, three weeks after application
In short: as §4

lambsquarters = assay: Test Example 5: herbicidal effect by foliage application, plastic box (Table 20, symbol O); assay type: in vivo, lambsquarters (Chenopodium album); details: foliage application, three weeks after application
In short: as §4

persian speedwell = assay: Test Example 5: herbicidal effect by foliage application, plastic box (Table 20, symbol R); assay type: in vivo, Persian speedwell (Veronica persica); details: foliage application, three weeks after application
In short: as §4

[9] = amount of applied herbicide 304 g/ha
[10] = amount of applied herbicide 320 g/ha
[11] = amount of applied herbicide 80 g/ha

| Structure (SMILES) | Herbicidal effect, A: late watergrass (late watergrass; [10]) | Herbicidal effect, B: Japanese bulrush (Japanese bulrush; [10]) | herbicidal effect on barnyard grass (H) (barnyard grass [1]; 320 g/ha) | herbicidal effect on Chinese sprangletop (D) (Chinese sprangletop; 320 g/ha) | herbicidal effect on rice flat sedge (E) (rice flat sedge; 320 g/ha) | F: southern crabgrass, herbicidal effect grade (southern crabgrass; [10]) | G: green foxtail, herbicidal effect grade (green foxtail [2]; [10]) | J: blackgrass, herbicidal effect grade (blackgrass [3]; [10]) | N: redroot pigweed, herbicidal effect grade (redroot pigweed [4]; [10]) | G: green foxtail, herbicidal effect grade (green foxtail [5]; 320 g/ha) | H: barnyard grass, herbicidal effect grade (barnyard grass [6]; 320 g/ha) | J: blackgrass, herbicidal effect grade (blackgrass [7]; 320 g/ha) | K: Italian ryegrass, herbicidal effect grade (Italian ryegrass; 320 g/ha) | L: windgrass, herbicidal effect grade (windgrass; 320 g/ha) | M: velvetleaf, herbicidal effect grade (velvetleaf; 320 g/ha) | N: redroot pigweed, herbicidal effect grade (redroot pigweed [8]; 320 g/ha) | O: lambsquarters, herbicidal effect grade (lambsquarters; 320 g/ha) | R: persian speedwell, herbicidal effect grade (persian speedwell; 320 g/ha) | also measured |
| --- | --- | --- | --- | --- | --- | --- | --- | --- | --- | --- | --- | --- | --- | --- | --- | --- | --- | --- | --- |
| CCCC(=O)Oc1c(C)nn(C)c(=O)c1-c1c(-c2ccccc2OCC)sc2cc(C)ccc12 [3-054] | – | – | – | – | – | – | – | – | – | – | – | – | – | – | – | – | – | – | Herbicidal effect, A: late watergrass (late watergrass; [9]): 5 (Herbicidal rate of 90% or more (almost completely withered)); Herbicidal effect, B: Japanese bulrush (Japanese bulrush; [9]): 5 (Herbicidal rate of 90% or more (almost completely withered)); herbicidal effect on barnyard grass (H) (barnyard grass [1]; 304 g/ha): 5 (Herbicidal rate of 90% or more (almost completely withered)); herbicidal effect on Chinese sprangletop (D) (Chinese sprangletop; 304 g/ha): 3 (Herbicidal rate of 40% or more and less than 70%); herbicidal effect on rice flat sedge (E) (rice flat sedge; 304 g/ha): 5 (Herbicidal rate of 90% or more (almost completely withered)); F: southern crabgrass, herbicidal effect grade (southern crabgrass; [9]): 4 (Herbicidal rate of 70% or more and less than 90%); G: green foxtail, herbicidal effect grade (green foxtail [2]; [9]): 3 (Herbicidal rate of 40% or more and less than 70%); J: blackgrass, herbicidal effect grade (blackgrass [3]; [9]): 3 (Herbicidal rate of 40% or more and less than 70%); N: redroot pigweed, herbicidal effect grade (redroot pigweed [4]; [9]): 1 (Herbicidal rate of 5% or more and less than 20%); G: green foxtail, herbicidal effect grade (green foxtail [5]; 304 g/ha): 5 (Herbicidal rate of 90% or more (almost completely withered)); H: barnyard grass, herbicidal effect grade (barnyard grass [6]; 304 g/ha): 4 (Herbicidal rate of 70% or more and less than 90%); J: blackgrass, herbicidal effect grade (blackgrass [7]; 304 g/ha): 4 (Herbicidal rate of 70% or more and less than 90%); K: Italian ryegrass, herbicidal effect grade (Italian ryegrass; 304 g/ha): 5 (Herbicidal rate of 90% or more (almost completely withered)); L: windgrass, herbicidal effect grade (windgrass; 304 g/ha): 4 (Herbicidal rate of 70% or more and less than 90%); M: velvetleaf, herbicidal effect grade (velvetleaf; 304 g/ha): 4 (Herbicidal rate of 70% or more and less than 90%); N: redroot pigweed, herbicidal effect grade (redroot pigweed [8]; 304 g/ha): 5 (Herbicidal rate of 90% or more (almost completely withered)); O: lambsquarters, herbicidal effect grade (lambsquarters; 304 g/ha): 4 (Herbicidal rate of 70% or more and less than 90%); R: persian speedwell, herbicidal effect grade (persian speedwell; 304 g/ha): 5 (Herbicidal rate of 90% or more (almost completely withered)) |
| COc1cc(F)ccc1-c1sc2cc(C)ccc2c1-c1c(O)c(C)nn(C)c1=O [3-055] | 4 (Herbicidal rate of 70% or more and less than 90%) | 4 (Herbicidal rate of 70% or more and less than 90%) | 5 (Herbicidal rate of 90% or more (almost completely withered)) | 4 (Herbicidal rate of 70% or more and less than 90%) | 5 (Herbicidal rate of 90% or more (almost completely withered)) | 3 (Herbicidal rate of 40% or more and less than 70%) | 0 (Herbicidal rate of 5% or less (almost no effect)) | 2 (Herbicidal rate of 20% or more and less than 40%) | 0 (Herbicidal rate of 5% or less (almost no effect)) | 5 (Herbicidal rate of 90% or more (almost completely withered)) | 4 (Herbicidal rate of 70% or more and less than 90%) | 5 (Herbicidal rate of 90% or more (almost completely withered)) | 5 (Herbicidal rate of 90% or more (almost completely withered)) | 5 (Herbicidal rate of 90% or more (almost completely withered)) | 5 (Herbicidal rate of 90% or more (almost completely withered)) | 5 (Herbicidal rate of 90% or more (almost completely withered)) | 5 (Herbicidal rate of 90% or more (almost completely withered)) | 5 (Herbicidal rate of 90% or more (almost completely withered)) | – |
| CCCC(=O)Oc1c(C)nn(C)c(=O)c1-c1c(-c2ccccc2OCC)sc2cc(OC)ccc12 [3-071] | 5 (Herbicidal rate of 90% or more (almost completely withered)) | 5 (Herbicidal rate of 90% or more (almost completely withered)) | 5 (Herbicidal rate of 90% or more (almost completely withered)) | 5 (Herbicidal rate of 90% or more (almost completely withered)) | 5 (Herbicidal rate of 90% or more (almost completely withered)) | 4 (Herbicidal rate of 70% or more and less than 90%) | 4 (Herbicidal rate of 70% or more and less than 90%) | 4 (Herbicidal rate of 70% or more and less than 90%) | 4 (Herbicidal rate of 70% or more and less than 90%) | 5 (Herbicidal rate of 90% or more (almost completely withered)) | 5 (Herbicidal rate of 90% or more (almost completely withered)) | 5 (Herbicidal rate of 90% or more (almost completely withered)) | 4 (Herbicidal rate of 70% or more and less than 90%) | 5 (Herbicidal rate of 90% or more (almost completely withered)) | 5 (Herbicidal rate of 90% or more (almost completely withered)) | 5 (Herbicidal rate of 90% or more (almost completely withered)) | 5 (Herbicidal rate of 90% or more (almost completely withered)) | 5 (Herbicidal rate of 90% or more (almost completely withered)) | – |
| CCOc1cc(F)ccc1-c1sc2cc(OC)ccc2c1-c1c(O)c(C)nn(C)c1=O [3-078] | – | – | – | – | – | – | – | – | – | – | – | – | – | – | – | – | – | – | Herbicidal effect, A: late watergrass (late watergrass; [11]): 5 (Herbicidal rate of 90% or more (almost completely withered)); Herbicidal effect, B: Japanese bulrush (Japanese bulrush; [11]): 5 (Herbicidal rate of 90% or more (almost completely withered)); herbicidal effect on barnyard grass (H) (barnyard grass [1]; 80 g/ha): 5 (Herbicidal rate of 90% or more (almost completely withered)); herbicidal effect on Chinese sprangletop (D) (Chinese sprangletop; 80 g/ha): 3 (Herbicidal rate of 40% or more and less than 70%); herbicidal effect on rice flat sedge (E) (rice flat sedge; 80 g/ha): 5 (Herbicidal rate of 90% or more (almost completely withered)); F: southern crabgrass, herbicidal effect grade (southern crabgrass; [11]): 4 (Herbicidal rate of 70% or more and less than 90%); G: green foxtail, herbicidal effect grade (green foxtail [2]; [11]): 0 (Herbicidal rate of 5% or less (almost no effect)); J: blackgrass, herbicidal effect grade (blackgrass [3]; [11]): 5 (Herbicidal rate of 90% or more (almost completely withered)); N: redroot pigweed, herbicidal effect grade (redroot pigweed [4]; [11]): 3 (Herbicidal rate of 40% or more and less than 70%); G: green foxtail, herbicidal effect grade (green foxtail [5]; 80 g/ha): 4 (Herbicidal rate of 70% or more and less than 90%); H: barnyard grass, herbicidal effect grade (barnyard grass [6]; 80 g/ha): 5 (Herbicidal rate of 90% or more (almost completely withered)); J: blackgrass, herbicidal effect grade (blackgrass [7]; 80 g/ha): 4 (Herbicidal rate of 70% or more and less than 90%); K: Italian ryegrass, herbicidal effect grade (Italian ryegrass; 80 g/ha): 4 (Herbicidal rate of 70% or more and less than 90%); L: windgrass, herbicidal effect grade (windgrass; 80 g/ha): 5 (Herbicidal rate of 90% or more (almost completely withered)); M: velvetleaf, herbicidal effect grade (velvetleaf; 80 g/ha): 5 (Herbicidal rate of 90% or more (almost completely withered)); N: redroot pigweed, herbicidal effect grade (redroot pigweed [8]; 80 g/ha): 5 (Herbicidal rate of 90% or more (almost completely withered)); O: lambsquarters, herbicidal effect grade (lambsquarters; 80 g/ha): 5 (Herbicidal rate of 90% or more (almost completely withered)); R: persian speedwell, herbicidal effect grade (persian speedwell; 80 g/ha): 5 (Herbicidal rate of 90% or more (almost completely withered)) |
